One test has as its target TarO (Staphylococcus aureus, UniProt Q2G060). Type of test: cell-based. As to conditions: for IC50: relative inhibition rate against the wild-type strain, OD600 at 20 h, n.a. = IC50 cannot be calculated within the test range; for TarO inhibitory activity (in words): SAR discussion.
Another test concerns USA300 LAC. The test can be described thus: Checkerboard MIC assay with oxacillin. Type of test: cell-based, Staphylococcus aureus. The settings on record: for FICI / Sensitization fold / Minimum sensitization concentration: USA300 LAC/oxacillin; for Minimum sensitization concentration: test range 0.03–32 μg/mL. The protocol:
(§1) In the checkerboard assay, concentrations of antibiotics, oxacillin and imipenem, and TarO inhibitors were simultaneously varied across columns and the rows, respectively. […] The range of each compound chosen for the checkerboard assay was according to their MIC value. […] For each clear well observed on the checkerboard MIC plate, the fractional inhibitory concentration index (FICI) was calculated as follows: FICI = FIC (inhibitor) + FIC (antibiotic) = MIC inhibitor in combination/ MIC inhibitor alone + MIC antibiotic in combination/MIC antibiotic alone. FIC = Fractional Inhibitory Concentration. A FICI value of < 0.5 indicates synergy, a value between 0.5 and 2 indicates additivity or indifference, and a value > 2 indicates antagonism.

A further test concerns HS663. In words: Checkerboard MIC assay with imipenem. Type of test: cell-based, Staphylococcus aureus. The settings on record: imipenem used alone, HS663. The method, then: as §1
The test system of a further test is USA400 MW2. In words: Checkerboard MIC assay with oxacillin. Type of test: cell-based, Staphylococcus aureus. As to conditions: oxacillin used alone, USA400 MW2. The protocol: as §1
[1] abbreviates: at maximum sensitization concentration.
The mark [2] stands for this setting: at minimum sensitization concentration.
[3] abbreviates: Staphylococcus aureus, read-out: MIC of β-lactam, Individual.

Where only a bound is given, the exact number is not on record here.

Turning to `C[C@H]1[C@@H](c2cc(C(F)(F)F)cc(C(F)(F)F)c2)OC(=O)N1C(=O)OCc1cccc2ccccc12` [Compound 1], the IC50 on TarO was 0.161 µM. Besides, in the test with USA300 LAC (setting [1]), the FICI is on record as < 0.07 and the Sensitization fold was 16. The Sensitization fold in the test with USA300 LAC (setting [2]) is 8. For the same molecule, the Minimum sensitization concentration in the test with USA300 LAC came out at 0.06 µg/mL.

In the case of `C[C@H]1[C@@H](c2cc(C(F)(F)F)cc(C(F)(F)F)c2)OC(=O)N1C(=O)SCc1cccc2ccccc12` [Compound 2], on TarO, the “TarO inhibitory activity (in words)” value is “potent TarO inhibitory activity” and the IC50 was 0.0974 µM. Moreover, in the test with USA300 LAC (setting [1]), the FICI is < 0.04 and the Sensitization fold was 32. For the same molecule, the Sensitization fold in the test on USA300 LAC (setting [2]) is 8. The Minimum sensitization concentration with USA300 LAC amounted to 0.06 µg/mL.

As for `C[C@H]1[C@@H](c2cc(C(F)(F)F)cc(C(F)(F)F)c2)OC(=O)N1C(=S)NCc1cccc2ccccc12` [Compound 5], the IC50 at TarO was 8.98 µM. Further, in the test on USA300 LAC (setting [1]), the FICI is < 0.13 and the Sensitization fold came to 8. Further, in the test on USA300 LAC (setting [2]), the Sensitization fold worked out at 8. Moreover, the Minimum sensitization concentration in the test with USA300 LAC turned out to be 0.25 µg/mL.

For `C[C@H]1[C@@H](c2cc(C(F)(F)F)cc(C(F)(F)F)c2)OC(=O)N1C(=O)N1CC(c2cccc3ccccc23)C1` [Compound 6], the “TarO inhibitory activity (in words)” value at TarO is “loss of activity”.

Regarding `C[C@H]1[C@@H](c2cc(C(F)(F)F)cc(C(F)(F)F)c2)OC(=O)N1C(=O)CNc1cccc2ccccc12` [Compound 7], the IC50 at TarO is 7.19 µM.

For the molecule `C[C@H]1[C@@H](c2cc(C(F)(F)F)cc(C(F)(F)F)c2)OC(=O)N1C(=O)CCC1CCCCC1` [Compound 8], the “TarO inhibitory activity (in words)” value at TarO was “inactive”.

For `C[C@H]1[C@@H](c2cc(C(F)(F)F)cc(C(F)(F)F)c2)OC(=O)N1C(=O)CCN1CCS(=O)(=O)c2ccccc21` [Compound 9], at TarO, the “TarO inhibitory activity (in words)” value is reported as “potent inhibition activity comparable to Tarocin A” and the IC50 was 6.32 µM.

Regarding `C[C@H]1[C@@H](c2cc(C(F)(F)F)cc(C(F)(F)F)c2)OC(=O)N1C(=O)CCN1CCOc2ccccc21` [Compound 11], at TarO, the half-inhibitory concentration (IC50) is 1.99 µM. In the test on USA300 LAC (setting [1]), the FICI is < 0.07 and the Sensitization fold was 16. For the same molecule, the Sensitization fold in the test with USA300 LAC (setting [2]) was 4. In addition, the Minimum sensitization concentration with USA300 LAC turned out to be 0.03 µg/mL.

As for `C[C@H]1[C@@H](c2cc(C(F)(F)F)cc(C(F)(F)F)c2)OC(=O)N1C(=O)CCN1CCC(=O)c2ccccc21` [Compound 12], on TarO, the IC50 was 5.05 µM.

With `C[C@H]1[C@@H](c2cc(C(F)(F)F)cc(C(F)(F)F)c2)OC(=O)N1C(=O)CCc1cccc2c1OCCC2=O` [Compound 14], the IC50 on TarO was 4.04 µM. Besides, in the test on USA300 LAC (setting [1]), the FICI is listed as < 0.08. For the same molecule, the Sensitization fold came out at 16 with USA300 LAC (setting [1]) and 8 with USA300 LAC (setting [2]). In addition, the Minimum sensitization concentration in the test on USA300 LAC stood at 0.25 µg/mL.

Turning to `C[C@H]1[C@@H](c2cc(C(F)(F)F)cc(C(F)(F)F)c2)OC(=O)N1C(=O)CCn1ccc(=O)c2ccccc21` [Compound 17a], on TarO, the IC50 was 4.08 µM. In the test with USA300 LAC (setting [1]), the FICI is reported as < 0.13 and the Sensitization fold came to 1024. Further, in the test on USA300 LAC (setting [2]), the FICI was < 0.15 and the Sensitization fold is on record as 8. Besides, the Minimum sensitization concentration in the test with USA300 LAC stood at 4 µg/mL.

In the case of `COc1cc(C(F)(F)F)cc([C@H]2OC(=O)N(C(=O)CCn3ccc(=O)c4ccccc43)[C@H]2C)n1` [Compound 17b], the IC50 at TarO is 22.4 µM.

On to `C[C@H]1[C@@H](c2cc(F)cc(C(F)(F)F)c2)OC(=O)N1C(=O)CCn1ccc(=O)c2ccccc21` [Compound 17c], for which the IC50 at TarO is 27.8 µM.

For the molecule `C[C@H]1[C@@H](c2cccc(C(F)(F)F)c2)OC(=O)N1C(=O)CCn1ccc(=O)c2ccccc21` [Compound 17d], the IC50 on TarO was 30.2 µM.

For `C[C@H]1[C@@H](c2cc(C(F)(F)F)cc(C(F)(F)F)c2)OC(=O)N1C(=O)CCN1CCS(=O)(=O)CC1` [Compound 19], on TarO, the “TarO inhibitory activity (in words)” value is listed as “lost its activity”.

In the case of `C[C@H]1[C@@H](c2cc(C(F)(F)F)cc(C(F)(F)F)c2)OC(=O)N1C(=O)CCc1cccc2c1OCC/C2=N\O` [Compound 23], at TarO, the IC50 is 7.54 µM.

With `C[C@H]1[C@@H](c2cccc(C(F)(F)F)c2)OC(=O)N1C(=O)NCc1cncc2ccccc12` [Tarocin A2, reference compound], on TarO, the IC50 was 24.2 µM.

In the case of `C[C@@H](O)[C@H]1C(=O)N2C(C(=O)O)=C(SCCN=CN)C[C@H]12` [imipenem, reference compound], in the test on HS663 (setting [3]), the MIC stood at 64 µg/mL. Moreover, in the test on HS663, the “MIC of β-lactam, Individual” value stood at 64 µg/mL.

`Cc1onc(-c2ccccc2)c1C(=O)N[C@@H]1C(=O)N2[C@@H]1SC(C)(C)[C@@H]2C(=O)O` [oxacillin, reference compound]: the MIC in the test on USA300 LAC (Staphylococcus aureus, oxacillin used alone, USA300 LAC, read-out: MIC of β-lactam, Individual) was found to be 64 µg/mL; in the test on USA400 MW2 (setting [3]) it was 16 µg/mL. The “MIC of β-lactam, Individual” value stood at 64 µg/mL with USA300 LAC (oxacillin used alone, USA300 LAC) and 16 µg/mL in the test with USA400 MW2.

Turning to tunicamycin [reference compound], the “induction of vraXpro-lux expression” value at TarO (MRSA USA300 LAC strain, exponential growth phase) is “concentration-dependent manner”. Also, on TarO (post-exponential growth phase), the “bacterial growth density (OD600)” value is “effectively reduced the bacterial growth density”.

One may read the IC50 as the concentration that inhibits the measured activity by half. Broadly, the MIC is the lowest concentration found to suppress growth.

(Values after article PMC11993615, “Design, synthesis and optimization of TarO inhibitors as multifunctional antibiotics against Methicillin-resistant Staphylococcus aureus” (npj Antimicrobials and Resistance, 2025).)
